# Calls of active or inactive are those of the source. The calls are words filed in the database; no cut-off is given here.
# Legend:
# [1] = Binding affinity to amyloid beta (1 to 42) aggregates after 2 hrs by saturation binding method
# [2] = Binding affinity to amyloid beta (1 to 40) aggregates after 2 hrs by saturation binding method
# Mus musculus [3] = species on record: Mus musculus; test: Binding affinity to beta amyloid plaques in brain sections of TgC57 transgenic mouse transfected with APP and PS1 double mutant after 10 mins using thioflavin-S stain; type: tissue-based
# Mus musculus [4] = species on record: Mus musculus; test: Binding affinity to beta amyloid plaques in brain sections of TgC57 transgenic mouse transfected with APP and PS1 double mutant after 30 mins by autoradiography; type: tissue-based; conditions: tested as the 125I-labelled form
# Mus musculus [5] = species on record: Mus musculus; test: Binding affinity to beta amyloid plaques in brain sections of TgC57 transgenic mouse transfected with APP and PS1 double mutant after 30 mins by autoradiography in the presence of thioflavin-T; type: tissue-based; conditions: tested as the 125I-labelled form
# [6] = Displacement of [125I]TZDM from amyloid beta (1 to 40) aggregates after 2 hrs
# [7] = Displacement of [125I]TZDM from amyloid beta (1 to 42) aggregates after 2 hrs
# Muscle tissue [8] = test: Biodistribution in muscle of Kunming mouse at 1 uCi, iv after 60 mins by gamma counting; type: ADME, organism-based; conditions: in vivo, 1 h
# Muscle tissue [9] = test: Biodistribution in muscle of Kunming mouse at 1 uCi, iv after 120 mins by gamma counting; type: ADME, organism-based; conditions: in vivo, 2 h
# Muscle tissue [10] = test: Biodistribution in muscle of Kunming mouse at 1 uCi, iv after 240 mins by gamma counting; type: ADME, organism-based; conditions: in vivo, 4 h
# [11] = Partition coefficient, log D in n-octanol/0.05 M phosphate buffer at pH 7.4; type: physicochemical
# Plasma = test: Metabolic stability in mouse plasma assessed as deiodination after 2 hrs by HPLC analysis; type: ADME, cell-free
# Blood [12] = test: Biodistribution in blood of Kunming mouse at 1 uCi, iv after 30 mins by gamma counting; type: ADME, organism-based; conditions: in vivo, 0.5 h
# Blood [13] = test: Biodistribution in blood of Kunming mouse at 1 uCi, iv after 2 mins by gamma counting; type: ADME, organism-based; conditions: in vivo
# Blood [14] = test: Biodistribution in blood of Kunming mouse at 1 uCi, iv after 60 mins by gamma counting; type: ADME, organism-based; conditions: in vivo, 1 h
# Blood [15] = test: Biodistribution in blood of Kunming mouse at 1 uCi, iv after 120 mins by gamma counting; type: ADME, organism-based; conditions: in vivo, 2 h
# Blood [16] = test: Biodistribution in blood of Kunming mouse at 1 uCi, iv after 240 mins by gamma counting; type: ADME, organism-based; conditions: in vivo, 4 h
# Brain [17] = test: Biodistribution in brain of Kunming mouse at 1 uCi, iv after 2 mins by gamma counting; type: ADME, organism-based; conditions: in vivo
# Brain [18] = test: Biodistribution in brain of Kunming mouse at 1 uCi, iv after 30 mins by gamma counting; type: ADME, organism-based; conditions: in vivo, 0.5 h
# Brain [19] = test: Biodistribution in brain of Kunming mouse at 1 uCi, iv after 60 mins by gamma counting; type: ADME, organism-based; conditions: in vivo, 1 h
# Brain [20] = test: Biodistribution in brain of Kunming mouse at 1 uCi, iv after 120 mins by gamma counting; type: ADME, organism-based; conditions: in vivo, 2 h
# Brain [21] = test: Biodistribution in brain of Kunming mouse at 1 uCi, iv after 240 mins by gamma counting; type: ADME, organism-based; conditions: in vivo, 4 h
# Heart [22] = test: Biodistribution in heart of Kunming mouse at 1 uCi, iv after 2 mins by gamma counting; type: ADME, organism-based; conditions: in vivo
# Heart [23] = test: Biodistribution in heart of Kunming mouse at 1 uCi, iv after 30 mins by gamma counting; type: ADME, organism-based; conditions: in vivo, 0.5 h
# Heart [24] = test: Biodistribution in heart of Kunming mouse at 1 uCi, iv after 60 mins by gamma counting; type: ADME, organism-based; conditions: in vivo, 1 h
# Heart [25] = test: Biodistribution in heart of Kunming mouse at 1 uCi, iv after 120 mins by gamma counting; type: ADME, organism-based; conditions: in vivo, 2 h
# Heart [26] = test: Biodistribution in heart of Kunming mouse at 1 uCi, iv after 240 mins by gamma counting; type: ADME, organism-based; conditions: in vivo, 4 h
# Liver [27] = test: Biodistribution in liver of Kunming mouse at 1 uCi, iv after 2 mins by gamma counting; type: ADME, organism-based; conditions: in vivo
# Liver [28] = test: Biodistribution in liver of Kunming mouse at 1 uCi, iv after 30 mins by gamma counting; type: ADME, organism-based; conditions: in vivo, 0.5 h
# Liver [29] = test: Biodistribution in liver of Kunming mouse at 1 uCi, iv after 60 mins by gamma counting; type: ADME, organism-based; conditions: in vivo, 1 h
# Liver [30] = test: Biodistribution in liver of Kunming mouse at 1 uCi, iv after 120 mins by gamma counting; type: ADME, organism-based; conditions: in vivo, 2 h
# Liver [31] = test: Biodistribution in liver of Kunming mouse at 1 uCi, iv after 240 mins by gamma counting; type: ADME, organism-based; conditions: in vivo, 4 h
# Spleen [32] = test: Biodistribution in spleen of Kunming mouse at 1 uCi, iv after 2 mins by gamma counting; type: ADME, organism-based; conditions: in vivo
# Spleen [33] = test: Biodistribution in spleen of Kunming mouse at 1 uCi, iv after 30 mins by gamma counting; type: ADME, organism-based; conditions: in vivo, 0.5 h
# Spleen [34] = test: Biodistribution in spleen of Kunming mouse at 1 uCi, iv after 60 mins by gamma counting; type: ADME, organism-based; conditions: in vivo, 1 h
# Spleen [35] = test: Biodistribution in spleen of Kunming mouse at 1 uCi, iv after 120 mins by gamma counting; type: ADME, organism-based; conditions: in vivo, 2 h
# Spleen [36] = test: Biodistribution in spleen of Kunming mouse at 1 uCi, iv after 240 mins by gamma counting; type: ADME, organism-based; conditions: in vivo, 4 h
# Lung [37] = test: Biodistribution in lung of Kunming mouse at 1 uCi, iv after 2 mins by gamma counting; type: ADME, organism-based; conditions: in vivo
# Lung [38] = test: Biodistribution in lung of Kunming mouse at 1 uCi, iv after 30 mins by gamma counting; type: ADME, organism-based; conditions: in vivo, 0.5 h
# Lung [39] = test: Biodistribution in lung of Kunming mouse at 1 uCi, iv after 60 mins by gamma counting; type: ADME, organism-based; conditions: in vivo, 1 h
# Lung [40] = test: Biodistribution in lung of Kunming mouse at 1 uCi, iv after 120 mins by gamma counting; type: ADME, organism-based; conditions: in vivo, 2 h
# Lung [41] = test: Biodistribution in lung of Kunming mouse at 1 uCi, iv after 240 mins by gamma counting; type: ADME, organism-based; conditions: in vivo, 4 h
# Kidney [42] = test: Biodistribution in kidney of Kunming mouse at 1 uCi, iv after 2 mins by gamma counting; type: ADME, organism-based; conditions: in vivo
# Kidney [43] = test: Biodistribution in kidney of Kunming mouse at 1 uCi, iv after 30 mins by gamma counting; type: ADME, organism-based; conditions: in vivo, 0.5 h
# Kidney [44] = test: Biodistribution in kidney of Kunming mouse at 1 uCi, iv after 60 mins by gamma counting; type: ADME, organism-based; conditions: in vivo, 1 h
# Kidney [45] = test: Biodistribution in kidney of Kunming mouse at 1 uCi, iv after 120 mins by gamma counting; type: ADME, organism-based; conditions: in vivo, 2 h
# Kidney [46] = test: Biodistribution in kidney of Kunming mouse at 1 uCi, iv after 240 mins by gamma counting; type: ADME, organism-based; conditions: in vivo, 4 h
# Stomach [47] = test: Biodistribution in stomach of Kunming mouse at 1 uCi, iv after 2 mins by gamma counting measured per organ; type: ADME, organism-based; conditions: in vivo
# Stomach [48] = test: Biodistribution in stomach of Kunming mouse at 1 uCi, iv after 30 mins by gamma counting measured per organ; type: ADME, organism-based; conditions: in vivo, 0.5 h
# Stomach [49] = test: Biodistribution in stomach of Kunming mouse at 1 uCi, iv after 60 mins by gamma counting measured per organ; type: ADME, organism-based; conditions: in vivo, 1 h
# Stomach [50] = test: Biodistribution in stomach of Kunming mouse at 1 uCi, iv after 120 mins by gamma counting measured per organ; type: ADME, organism-based; conditions: in vivo, 2 h
# Stomach [51] = test: Biodistribution in stomach of Kunming mouse at 1 uCi, iv after 240 mins by gamma counting measured per organ; type: ADME, organism-based; conditions: in vivo, 4 h
# Muscle tissue [52] = test: Biodistribution in muscle of Kunming mouse at 1 uCi, iv after 2 mins by gamma counting; type: ADME, organism-based; conditions: in vivo
# Muscle tissue [53] = test: Biodistribution in muscle of Kunming mouse at 1 uCi, iv after 30 mins by gamma counting; type: ADME, organism-based; conditions: in vivo, 0.5 h
# [54] = Binding affinity to amyloid beta aggregates
compound,measurement,setting,value
CN(C)c1ccc(-c2nc3ccc([125I])cc3s2)cc1,Ki,[1],0.13 nM
same,Ki,[2],0.09 nM
COc1ccc2nc(-c3ccc(-c4ccc(I)s4)s3)sc2c1,Activity,Mus musculus [3],Active
same,Activity,Mus musculus [4],Active
same,Activity,Mus musculus [5],inactive
same,Ki,[6],0.61 nM
same,Ki,[7],0.11 nM
COc1ccc2nc(-c3ccc(-c4ccc([125I])s4)s3)sc2c1,Drug uptake,Muscle tissue [8],3.56 % ID/g
same,Drug uptake,Muscle tissue [9],2.46 % ID/g
same,Drug uptake,Muscle tissue [10],1.95 % ID/g
same,logD,[11],3.27
same,Stability,Plasma,Stable
same,Drug uptake,Blood [12],6.55 % ID/g
same,Drug uptake,Blood [13],23.34 % ID/g
same,Drug uptake,Blood [14],6.58 % ID/g
same,Drug uptake,Blood [15],6.62 % ID/g
same,Drug uptake,Blood [16],5.05 % ID/g
same,Drug uptake,Brain [17],0.87 % ID/g
same,Drug uptake,Brain [18],0.64 % ID/g
same,Drug uptake,Brain [19],0.77 % ID/g
same,Drug uptake,Brain [20],0.68 % ID/g
same,Drug uptake,Brain [21],0.53 % ID/g
same,Drug uptake,Heart [22],16.13 % ID/g
same,Drug uptake,Heart [23],5.94 % ID/g
same,Drug uptake,Heart [24],4.74 % ID/g
same,Drug uptake,Heart [25],3.48 % ID/g
same,Drug uptake,Heart [26],2.5 % ID/g
same,Drug uptake,Liver [27],35.25 % ID/g
same,Drug uptake,Liver [28],6.98 % ID/g
same,Drug uptake,Liver [29],5.76 % ID/g
same,Drug uptake,Liver [30],4.33 % ID/g
same,Drug uptake,Liver [31],3.23 % ID/g
same,Drug uptake,Spleen [32],19.04 % ID/g
same,Drug uptake,Spleen [33],7.11 % ID/g
same,Drug uptake,Spleen [34],6.24 % ID/g
same,Drug uptake,Spleen [35],4.92 % ID/g
same,Drug uptake,Spleen [36],4.49 % ID/g
same,Drug uptake,Lung [37],43.6 % ID/g
same,Drug uptake,Lung [38],10.28 % ID/g
same,Drug uptake,Lung [39],8.64 % ID/g
same,Drug uptake,Lung [40],7.7 % ID/g
same,Drug uptake,Lung [41],6.12 % ID/g
same,Drug uptake,Kidney [42],14.3 % ID/g
same,Drug uptake,Kidney [43],6.49 % ID/g
same,Drug uptake,Kidney [44],6.28 % ID/g
same,Drug uptake,Kidney [45],5.67 % ID/g
same,Drug uptake,Kidney [46],4.53 % ID/g
same,Drug uptake,Stomach [47],1.31 %ID
same,Drug uptake,Stomach [48],15.84 %ID
same,Drug uptake,Stomach [49],20.24 %ID
same,Drug uptake,Stomach [50],33.95 %ID
same,Drug uptake,Stomach [51],19.37 %ID
same,Drug uptake,Muscle tissue [52],2.73 % ID/g
same,Drug uptake,Muscle tissue [53],3.42 % ID/g
N#CC(C#N)=Cc1ccc(-c2ccc(-c3ccc(O)cc3)s2)s1,Ki,[54],10 nM
c1csc(-c2ccc(-c3nc4ccccc4s3)s2)c1,Activity,Mus musculus [3],Active
same,Ki,[6],3.94 nM
same,Ki,[7],4.64 nM
COc1ccc2nc(-c3ccc(-c4ccc(Br)s4)s3)sc2c1,Activity,Mus musculus [3],Active
same,Ki,[6],1.28 nM
same,Ki,[7],0.21 nM
